Our source for the melting point values is US6982348B2, “Aminoethanol derivatives” (Takeda Pharmaceutical Company Limited, priority 2001, dated 2006).

Consider `O=C(N[C@H](Cc1ccc(F)cc1)[C@@H](O)c1ccc(C(F)(F)F)cc1)c1cccc2ccccc12` (racemic) [Example 212, N-((1RS,2SR)-1-((4-fluorophenyl)methyl)-2-hydroxy-2-(4-(trifluoromethyl)phenyl)ethyl)-1-naphthalenecarboxamide], for which the melting point is 207 to 208 °C.

On to `O=C(N[C@H](Cc1ccc(F)cc1)[C@@H](O)c1ccc(C(F)(F)F)cc1)c1ccc(F)c2ccccc12` (racemic) [Example 213, 4-fluoro-N-((1RS,2SR)-1-((4-fluorophenyl)methyl)-2-hydroxy-2-(4-(trifluoromethyl)phenyl)ethyl)-1-naphthalenecarboxamide], for which the melting point is 235 to 236 °C.

As to `O=C(N[C@H](Cc1ccc(F)cc1)[C@@H](O)c1ccc(C(F)(F)F)cc1)C1CCCCC1` (racemic) [Example 214, N-((1RS,2SR)-1-((4-fluorophenyl)methyl)-2-hydroxy-2-(4-(trifluoromethyl)phenyl)ethyl)cyclohexanecarboxamide], the melting point fell in the range of 220 to 221 °C.

As for `O=C(CCCc1ccccc1)N[C@H](Cc1ccc(F)cc1)[C@@H](O)c1ccc(C(F)(F)F)cc1` (racemic) [Example 215, N-((1RS,2SR)-1-((4-fluorophenyl)methyl)-2-hydroxy-2-(4-(trifluoromethyl)phenyl)ethyl)-4-phenylbutyramide], the melting point is 155 to 156 °C.

In turn, `CC(C)(C)OC(=O)N[C@H](Cc1cccc(OC(F)(F)C(F)F)c1)[C@@H](O)c1ccnc(F)c1` (racemic) [Example 219, 1,1-dimethylethyl(1RS,2SR)-2-(2-fluoropyridin-4-yl)-2-hydroxy-1-((3-(1,1,2,2-tetrafluoroethoxy)phenyl)methyl)ethylcarbamate] had a melting point of 143 to 144 °C.

With `CC(C)(C)OC(=O)N[C@H](Cc1cccc(OC(F)(F)C(F)F)c1)[C@@H](O)c1cccc(F)n1` (racemic) [Example 221, 1,1-dimethylethyl(1RS,2RS)-2-(6-fluoropyridin-2-yl)-2-hydroxy-1-((3-(1,1,2,2-tetrafluoroethoxy)phenyl)methyl)ethylcarbamate], the melting point lay in the range of 140 to 141 °C.

For `CC(C)(C)OC(=O)N[C@H](Cc1cccc(OC(F)(F)C(F)F)c1)[C@@H](O)c1ccc(F)nc1` (racemic) [Example 223, 1,1-dimethylethyl(1RS,2SR)-2-(6-fluoropyridin-3-yl)-2-hydroxy-1-((3-(1,1,2,2-tetrafluoroethoxy)phenyl)methyl)ethylcarbamate], the melting point was in the range of 128 to 129 °C.

The molecule `O=C(N[C@H](Cc1cccc(OC(F)(F)C(F)F)c1)[C@@H](O)c1ccc(F)nc1)c1ccc(F)c2ccccc12` (racemic) [Example 224, N-((1RS,2SR)-2-(6-fluoropyridin-3-yl)-2-hydroxy-1-((3-(1,1,2,2-tetrafluoroethoxy)phenyl)methyl)ethyl)-4-fluoro-1-naphthalenecarboxamide] registered a melting point of 148 to 149 °C.

In the case of `Cc1cc(C[C@@H](NC(=O)c2ccc(F)c3ccccc23)[C@@H](O)c2ccc(F)cc2)cc(OC(F)(F)C(F)F)c1` (racemic) [Example 230, N-((1RS,2SR)-2-(4-fluorophenyl)-2-hydroxy-1-((5-methyl-3-(1,1,2,2-tetrafluoroethoxy)phenyl)methyl)ethyl)-4-fluoro-1-naphthalenecarboxamide], the melting point was in the range of 189 to 190 °C.

Take `Cc1ccc(C[C@@H](NC(=O)c2cccc3c2C=CCCC3)[C@@H](O)c2ccc(F)cc2)cc1OC(F)(F)C(F)F` (racemic) [Example 234, N-((1RS,2SR)-2-(4-fluorophenyl)-2-hydroxy-1-((4-methyl-3-((1,1,2,2-tetrafluoroethyl)oxy)phenyl)methyl)ethyl)-6,7-dihydro-5H-benzo[a]cycloheptene-1-carboxamide]: the melting point fell in the range of 168 to 169 °C.
